Data taken from ChEMBL document CHEMBL1158870, “Antitumor agents. 180. Chemical Studies and cytotoxic evaluation of cumingianosides and cumindysoside A, antileukemic triterpene glucosides with a 14,18-cycloapotirucallane skeleton” (1997).

Key:
Type in all cases: functional
KM12 = test: Cytotoxicity against human KM12 cells by SRB assay
[1] = Cytotoxicity against human Colon cancer cells by SRB assay; conditions: Cancer cell lines
HCT-116 = test: Cytotoxicity against human HCT116 cells by SRB assay
HCT-15 = test: Cytotoxicity against human HCT15 cells by SRB assay
[2] = Cytotoxicity against human melanoma cells by SRB assay; conditions: Melanoma cell
[3] = Cytotoxicity against human renal cancer cells by SRB assay; conditions: Cancer cell lines
HT-29 = test: Cytotoxicity against human HT29 cells by SRB assay
NSCLC = test: Cytotoxicity against human NSCLC cells by SRB assay
[4] = Cytotoxicity against human CNS cancer cells by SRB assay; conditions: Cancer cell lines
COLO 205 = test: Cytotoxicity against human COLO205 cells by SRB assay
SW-620 = test: Cytotoxicity against human SW620 cells by SRB assay
[5] = Cytotoxicity against human ovarian cancer cells by SRB assay; conditions: Cancer cell lines
Leukemia cell = test: Cytotoxicity against human Leukemia cells by SRB assay
HCC 2998 = test: Cytotoxicity against human HCC2998 cells by SRB assay

Compound | TGI (KM12) | TGI [1] | TGI (HCT-116) | TGI (HCT-15) | TGI [2] | TGI [3] | TGI (HT-29) | TGI (NSCLC) | TGI [4] | TGI (COLO 205) | TGI (SW-620) | TGI [5] | TGI (Leukemia cell) | TGI (HCC 2998)
CC(=O)OC[C@H]1O[C@@H](O[C@@H]2C[C@H]3C(C)(C)[C@H](OC(C)=O)CC[C@]3(C)[C@H]3CC[C@]45C[C@]4(CC[C@H]5[C@@H](C)C[C@@H](O)[C@@H]4OC4(C)C)[C@@]32C)[C@H](O)[C@@H](O)[C@@H]1O [CUMINGIANOSIDE E] | 3.8 µM | 4.2 µM | 3.5 µM | 6 µM | 15.4 µM | 10 µM | 1.7 µM | 14.5 µM | 7.9 µM | 1.8 µM | 10 µM | 5.9 µM | 1.8 µM | 2.7 µM
C=C(C)[C@@H](O)[C@H](O)C[C@H](C)[C@@H]1CC[C@]23C[C@]12CC[C@@H]1[C@@]2(C)CC[C@@H](OC(C)=O)C(C)(C)[C@@H]2C[C@@H](O[C@@H]2O[C@H](COC(C)=O)[C@@H](O)[C@H](O)[C@H]2O)[C@]13C [CUMINGIANOSIDE D] | 11.3 µM | 11 µM | 9.27 µM | 10.4 µM | 12.2 µM | 12.7 µM | 8.77 µM | 11.7 µM | 10.9 µM | 12.6 µM | 12 µM | 12.7 µM | 8.2 µM | 12.4 µM
CC(=O)OC[C@H]1O[C@@H](O[C@@H]2C[C@H]3C(C)(C)[C@H](OC(C)=O)CC[C@]3(C)[C@H]3CC[C@]45C[C@]4(CC[C@H]5[C@@H](C)C[C@@H](O)[C@H](O)C(C)(C)O)[C@@]32C)[C@H](O)[C@@H](O)[C@@H]1O [CUMINGIANOSIDE A] | 14.2 µM | 13.9 µM | 13.8 µM | 13.9 µM | 13.7 µM | 13.5 µM | 14.3 µM | 13.1 µM | 13.3 µM | 14 µM | 14.4 µM | 13.6 µM | 18.5 µM | 12.9 µM
C=C(C=O)[C@H](C)[C@@H]1CC[C@]23C[C@]12CC[C@@H]1[C@@]2(C)CC[C@@H](OC(C)=O)C(C)(C)[C@@H]2C[C@@H](O[C@@H]2O[C@H](COC(C)=O)[C@@H](O)[C@H](O)[C@H]2O)[C@]13C [CUMINDYSODIDE A] | 9.5 µM | 5 µM | 1.4 µM | 7.5 µM | 6.9 µM | 10.8 µM | 11.9 µM | 12.5 µM | 1.4 µM | 1.4 µM | 1.4 µM | 10.4 µM | 4 µM | 1.4 µM
